# In paper PMC2581485, “Ca^2+ Signaling Occurs via Second Messenger Release from Intraorganelle Synthesis Sites” (Current Biology, 2008):
# Key:
# recombinant ARCβ = target: T1, recombinant ARCβ (Strongylocentrotus purpuratus, UniProt A5HNF4); assay: radiometric TLC of […]cADPR formation; type: biochemical; details: 16 nM substrate; labelled compound; 1 h, 20 °C; pH varied, acidic pH preferred
# T1 construct: gene ARCB
# recombinant ARCα = target: T2, recombinant ARCα (Strongylocentrotus purpuratus, UniProt A5HNF3); assay: radiometric TLC of […]cADPR formation; type: biochemical; details: 16 nM substrate; labelled compound; 1 h, 20 °C; pH varied, acidic pH preferred
# T2 construct: gene ARCA
# T2 sequence (A5HNF3 entry or part of it): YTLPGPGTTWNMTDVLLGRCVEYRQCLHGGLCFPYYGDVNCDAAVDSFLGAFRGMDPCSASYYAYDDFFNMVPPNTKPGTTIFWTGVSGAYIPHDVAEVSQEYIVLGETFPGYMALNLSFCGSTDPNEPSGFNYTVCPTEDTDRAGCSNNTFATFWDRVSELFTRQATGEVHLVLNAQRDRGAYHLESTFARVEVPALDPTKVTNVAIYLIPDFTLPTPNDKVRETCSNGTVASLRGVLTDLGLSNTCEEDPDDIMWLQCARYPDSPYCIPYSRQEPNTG
# T1 sequence (A5HNF4 entry or part of it): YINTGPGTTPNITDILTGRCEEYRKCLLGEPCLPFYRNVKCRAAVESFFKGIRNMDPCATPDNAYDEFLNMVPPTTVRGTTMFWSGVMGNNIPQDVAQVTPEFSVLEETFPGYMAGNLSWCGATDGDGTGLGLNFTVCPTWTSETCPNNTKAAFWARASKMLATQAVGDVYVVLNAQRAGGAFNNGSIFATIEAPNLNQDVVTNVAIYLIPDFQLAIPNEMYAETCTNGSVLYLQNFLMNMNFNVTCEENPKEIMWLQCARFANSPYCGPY
Structure (SMILES),radiometric TLC of [32P]cADPR formation (recombinant ARCβ),radiometric TLC of [32P]cADPR formation (recombinant ARCα)
NC(=O)c1ccc[n+]([C@@H]2O[C@H](COP(=O)([O-])OP(=O)(O)OC[C@H]3O[C@@H](n4cnc5c(N)ncnc54)[C@H](O)[C@@H]3O)[C@@H](O)[C@H]2O)c1 [β-NAD^+],pH dependency of recombinant ARCα or ARCβ is shown,recombinant (Figure 3D) and endogenous (Figure 3C) sea urchin ARCs preferentially synthesize cADPR
N=c1c2ncn3c2ncn1[C@@H]1O[C@H](COP(=O)(O)OP(=O)(O)OC[C@H]2O[C@@H]3[C@H](O)[C@@H]2O)[C@@H](O)[C@H]1O [cADPR],pH dependency of recombinant ARCα or ARCβ is shown,recombinant (Figure 3D) and endogenous (Figure 3C) sea urchin ARCs preferentially synthesize cADPR
